# Laboratory results as given in US11883419B2, “DNA polymerase gamma inhibitor and uses thereof” (ACIBADEM MEHMET ALI AYDINLAR UNIVERSITESI, priority 2018, dated 2024).
# How the values were obtained:
# HCT116 xenograft = HCT116 xenograft study in nude mice; format: in vivo; conditions: all doses
# Text: Tumor volume (mm^3) vs days the graph is indicated in FIG. 6 (a), body weight vs days after injection graph is in FIG. 6 (b), and FIG. 6 (c) is HCT116 Control vs […] image.
# Lovo xenograft = Lovo xenograft study in nude mice; format: in vivo
# HCT116 (MLH1 deficient) = assay: xCELLigence real time cell proliferation/cytotoxicity; conditions: read-out: IC50, cytotoxicity; HCT116, 5, 10, 20 μM, 72 h, RTCA software
compound,measurement,setting,value
Nc1c(/N=N/c2ccc(-c3ccc(/N=N/c4cc(S(=O)(=O)O)c5ccccc5c4N)cc3)cc2)cc(S(=O)(=O)O)c2ccccc12 [Formula II],Tumor volume,HCT116 xenograft,decreased tumor volume in all doses
same,Tumor growth,Lovo xenograft,did not affect the tumor growth
same,IC50,HCT116 (MLH1 deficient),5.19 µM
